Measured values as given in the NIST ThermoML archive (doi:10.1016/j.tca.2015.02.014).
Numbers after ± are expanded uncertainties.

Assays:
[1] = mn = molality of the nth substance listed, in mol/kg; settings: 100 kPa, Liquid; for viscosity: Capillary tube (Ostwald / Ubbelohde) method; for speed of sound: Frequency=3 MHz, Sing-around technique in a fixed-path interferometer; for mass density: Vibrating tube method
[2] = 100 kPa, Liquid, Capillary tube (Ostwald / Ubbelohde) method

NCC(=O)O [2-aminoacetic acid] + O
[1], m1 = 0.1
Settings | mass density [kg/m3] | speed of sound [m/s] | viscosity [mPa·s]
293.15 K | 1001.51 ± 0.27 | 1488.2 ± 1.7 | 1.016 ± 0.022
298.15 K | 1000.32 ± 0.27 | 1502.2 ± 1.7 | 0.9031 ± 0.022
303.15 K | – | 1514.4 ± 1.7 | 0.808 ± 0.021
308.15 K | – | 1525 ± 1.7 | 0.7271 ± 0.021
313.15 K | 995.401 ± 0.28 | 1533.9 ± 1.7 | 0.6645 ± 0.021
318.15 K | – | 1541.3 ± 1.6 | 0.5988 ± 0.021

N[C@@H](Cc1c[nH]cn1)C(=O)O [L-histidine] + O
[1], m1 = 0.1
Settings | mass density [kg/m3] | speed of sound [m/s] | viscosity [mPa·s]
293.15 K | 1003.99 ± 0.27 | 1491.8 ± 1.7 | 1.052 ± 0.022
298.15 K | 1002.8 ± 0.28 | 1505.3 ± 1.7 | 0.928 ± 0.022
303.15 K | 1001.33 ± 0.28 | 1517.4 ± 1.7 | 0.8289 ± 0.021
308.15 K | 999.656 ± 0.28 | 1527.6 ± 1.7 | 0.7447 ± 0.021
313.15 K | 997.795 ± 0.28 | 1536.3 ± 1.7 | 0.6783 ± 0.021
318.15 K | 995.765 ± 0.27 | 1543.8 ± 1.6 | 0.5915 ± 0.021

CC(C)C[C@H](N)C(=O)O [L-leucine] + O
[1], m1 = 0.1
Settings | mass density [kg/m3] | speed of sound [m/s] | viscosity [mPa·s]
293.15 K | 1000.79 ± 0.27 | 1494.9 ± 1.7 | 1.06 ± 0.022
298.15 K | 999.575 ± 0.27 | 1508.3 ± 1.7 | 0.9398 ± 0.022
303.15 K | 998.115 ± 0.28 | 1520.2 ± 1.7 | 0.8362 ± 0.022
308.15 K | 996.485 ± 0.28 | 1530.3 ± 1.7 | 0.7509 ± 0.021
313.15 K | 994.559 ± 0.29 | 1538.8 ± 1.7 | 0.6801 ± 0.021
318.15 K | 992.305 ± 0.28 | 1545.9 ± 1.6 | 0.6014 ± 0.021

CSCC[C@H](N)C(=O)O [L-methionine] + O
[1], m1 = 0.1
Settings | mass density [kg/m3] | speed of sound [m/s] | viscosity [mPa·s]
293.15 K | 1002.78 ± 0.43 | 1493 ± 1.9 | 1.034 ± 0.023
298.15 K | 1001.58 ± 0.43 | 1506.7 ± 2 | 0.92 ± 0.022
303.15 K | 1000.16 ± 0.44 | 1518.5 ± 1.9 | 0.8289 ± 0.022
308.15 K | 998.461 ± 0.43 | 1528.7 ± 1.9 | 0.7461 ± 0.021
313.15 K | 996.591 ± 0.43 | 1537 ± 1.9 | 0.6799 ± 0.021
318.15 K | 994.572 ± 0.43 | 1544.2 ± 1.9 | 0.6105 ± 0.021

O [water]
[2]
Settings | viscosity [mPa·s]
293.15 K | 1.002 ± 0.021
298.15 K | 0.8903 ± 0.021
303.15 K | 0.7973 ± 0.021
308.15 K | 0.719 ± 0.021
313.15 K | 0.6526 ± 0.021
318.15 K | 0.596 ± 0.021

O [water] + C[C@H](CCC(=O)[O-])[C@H]1CC[C@H]2[C@@H]3CC[C@@H]4C[C@H](O)CC[C@]4(C)[C@H]3C[C@H](O)[C@]12C.[Na+]
[1], m2 = 0
Settings | mass density [kg/m3] | speed of sound [m/s] | viscosity [mPa·s]
293.15 K | – | – | 1.002 ± 0.021
298.15 K | – | – | 0.8903 ± 0.021
303.15 K | – | – | 0.7973 ± 0.021
308.15 K | – | – | 0.719 ± 0.021
313.15 K | – | 1529.2 ± 1.3 | 0.6526 ± 0.021
318.15 K | 990.256 ± 0.15 | 1536.5 ± 1.3 | 0.596 ± 0.021

O [water] + C[C@H](CCC(=O)[O-])[C@H]1CC[C@H]2[C@@H]3[C@H](O)C[C@@H]4C[C@H](O)CC[C@]4(C)[C@H]3C[C@H](O)[C@]12C.[Na+]
[1], m2 = 0
Settings | mass density [kg/m3] | speed of sound [m/s] | viscosity [mPa·s]
293.15 K | – | – | 1.002 ± 0.021
298.15 K | – | – | 0.8903 ± 0.021
303.15 K | – | – | 0.7973 ± 0.021
308.15 K | – | – | 0.719 ± 0.021
313.15 K | – | 1529.2 ± 1.3 | 0.6526 ± 0.021
318.15 K | 990.256 ± 0.14 | 1536.5 ± 1.3 | 0.596 ± 0.021
